Results as given in patent US20200362024A1, “BIOLOGICAL MATERIALS AND USES THEREOF” (IMPERIAL INNOVATIONS LIMITED, priority 2009, published 2020).

What was measured:
[1] = test system: human macrophages; assay: FBG or LPS induced cytokine synthesis in human macrophages pre-incubated with FBG peptides; format: cell-based; conditions: pre-incubated with 20 μM peptide for 15 min; for FBG mediated cytokine synthesis (block): then 1.0 μM FBG 24 h
Description: (§1) After incubation the tissue was pipetted through a nylon mesh into a sterile beaker. The cells were then washed three times in complete medium (RPMI 1640 supplemented with 10% FCS). RA synovial fibroblasts were isolated from the mixed population of RA membrane cells by selection in DMEM (Bio-Whittaker) supplemented with 10% FBS, […], 100 U/ml penicillin, and streptomycin. Human monocytes were isolated from peripheral blood (London Blood Bank) and macrophages were derived from monocytes after differentiation for 4 days with 100 ng/ml of M-CSF.
(§2) Macrophages were cultured at 1×10^5 cells/well in RPMI 1640 containing 5% (v/v) FBS and 100 U/ml penicillin/streptomycin in 96-well tissue culture plates for 24 h before stimulation. Cells were incubated for 24 h at 37° C. with no addition, 1.0 μM FBG, 1 ng/ml LPS or 1 or 20 μM FBG peptide. Where stated, cells were pre-incubated with 20 μM FBG peptides for 15 min.
(§3) Supernatants were examined for the presence of the cytokines TNF-α, IL-6, and IL-8 by enzyme-linked immunosorbent assay (ELISA) according to the manufacturer's instructions (R&D systems). Absorbance was read on a spectrophotometric ELISA plate reader (Labsystems Multiscan Biochromic, Vantaa, Finland) and analyzed using the Ascent software program (Thermo Labsystems, Altrincham, UK).

[2] = test system: RA membrane cells; assay: Blockade of spontaneous cytokine synthesis in RA synovial membrane cultures by FBG peptides; format: cell-based, human; conditions: for inhibition of cytokine synthesis: highest concentrations, dose dependent (25, 100 or 250 μM, TNF & IL8, FIG. 16); for TNF and IL8 synthesis (inhibition): spontaneous cytokine synthesis, 24 h with peptide
Description: RA membrane cells (representing a mixed population of all synovial cell types) were isolated from synovial membranes obtained from patients undergoing joint replacement surgery (Brennan (1989)). Synovial membrane tissue was digested in RPMI 1640 (GIBCO) containing 5% fetal calf serum (FCS) (GIBCO), 5 mg/ml collagenase type IV (Sigma) and 0 15 mg/ml DNAse type I (Sigma) and incubated at 37° C. for 2 h.
Immediately after isolation, RA membrane cells were cultured at 1×10^5 cells/well in RPMI 1640 containing 10% (v/v) FBS and 100 U/ml penicillin/streptomycin in 96-well tissue culture plates. Cells were incubated for 24 h at 37° C. with no addition, buffer control (PBS, 1% BSA, 0.01% NaN3), or with 25 μm, 100 μM or 250 μM of each FBG spanning peptide.
as §3

[3] = test system: primary human macrophages; assay: Cytokine synthesis by primary human macrophages stimulated with FBG peptides; format: cell-based; conditions: 1 or 20 μM peptide, 24 h (IL8, FIG. 17)
Description: as §1, §2, §3

[4] = test system: human macrophages and RA synovial fibroblasts; assay: Ligand induced cytokine synthesis after pre-incubation with function blocking antibodies or inhibitors; format: cell-based; conditions: 10 μg/ml IL1 receptor antagonist pre-incubation
Description: (§4) Cells were incubated for 24 hours at 37° C. with the indicated doses of tenascin-C and recombinant tenascin-C fragments (1.0 μM-1.0 nM). Cells were also stimulated where indicated with LPS (1 ng/ml for human macrophages, 10 ng/ml for human fibroblasts, RA membrane cells and HEKs, 100 ng/ml for MEFS and BMDMs and 10 ng/ml for HEKS), PAM3 (10 ng/ml for human macrophages, human fibroblasts, and HEKs, 100 ng/ml for MEFs and BMDMs), murine IL-1 (5 ng/ml for MEFS) and murine TNF-α (100 ng/ml for MEFS). Unless specifically stated otherwise rough LPS was used for in vitro studies.
(§5) Where stated, cells were pre-incubated with 10 μg/ml anti-CD14 antibody, 10 μg/ml IL1 receptor antagonist, 10 μg/ml anti-TLR2 antibody, 25 μg/ml anti-TLR4 antibody, 10 or 25 μg/ml isotype control antibody, 25 μg/ml polymyxin B, or 1 μg/ml msbB LPS, for 30 minutes at 37° C. before stimulation. Where stated, recombinant tenascin-C and FBG, and LPS were boiled for 15 minutes before addition to cells
as §3, with “were subsequently” for “were”, “instructions.” for “instructions (R&D systems).”

[5] = test system: TLR2 or TLR4 deficient embryonic fibroblasts and bone marrow derived macrophages; assay: Cytokine synthesis in embryonic fibroblasts and macrophages from TLR2 or TLR4 deficient mice; format: cell-based, mouse; conditions: 24 h
From the text: (§6) Homozygous TLR2 and TLR4 deficient mice on a C57BL/6 background (an inbred strain of mice with a black coat) were obtained from B&K Universal (Hull, UK) Hoshino (1999) and Takeuchi (1999). Homozygous MyD88 deficient mice on a C57BL/6 background were provided by the Sanger Institute (Cambridge, UK). Age matched congenic inbred wild type C57B/L6 mice were obtained from Charles River (Margate, UK). For isolation of mouse embryo fibroblasts one female aged 8-10 weeks was mated with two males aged 8-10 weeks. For isolation of bone marrow derived macrophages mice were female and between 10-12 weeks of age at the time of experimentation.
MEFs express high levels of mRNA of all 9 murine TLRs and are specifically and highly responsive to TLR ligand activation. […] MEFs were isolated from d13 embryos harvested from age-matched, pregnant female wild type, TLR2, TLR4 and null mice (as described in Todaro (1963)). Fibroblasts were cultured at 2×10^4 cells/well in DMEM containing 10% (v/v) FBS and 100 U/ml penicillin/streptomycin in 96-well tissue culture plates for 24 hours before stimulation.
BMDMs were derived by aspirating the femurs of age matched female wild type, TLR2 and TLR4 null mice as described in Butler (1999)) and culturing the cells for 7 days in DMEM, 20% (v/v) FBS, 10 ml/L (v/v) antibiotic-antimycotic solution PSA, 50 μM Mercaptoethanol and 10 ng/ml M-CSF. Macrophages were then cultured at 1×10^5 cells/well in DMEM, 20% (v/v) FBS, 10 ml/L (v/v) antibiotic-antimycotic solution PSA, 50 μM β-Mercaptoethanol in 96-well tissue culture plates for 24 hours before stimulation.
as §4
as §3, with “were subsequently” for “were”, “instructions.” for “instructions (R&D systems).”

[6] = test system: MyD88 deficient mouse embryonic fibroblasts; assay: Cytokine synthesis in mouse embryonic fibroblasts from MyD88 deficient mice; format: cell-based; conditions: 24 h; FBG 1 μM, PAM3, LPS, TNFα 100 ng/ml, IL-1 5 ng/ml
From the text: as §6, with “Homozygous” for “Homozygous TLR2 and TLR4 deficient mice on a C57BL/6 background (an inbred strain of mice with a black coat) were obtained from B&K Universal (Hull, UK) Hoshino (1999) and Takeuchi (1999). Homozygous”
MEFs express high levels of mRNA of all 9 murine TLRs and are specifically and highly responsive to TLR ligand activation. […] Fibroblasts were cultured at 2×10^4 cells/well in DMEM containing 10% (v/v) FBS and 100 U/ml penicillin/streptomycin in 96-well tissue culture plates for 24 hours before stimulation.
as §4
as §3, with “were subsequently” for “were”, “instructions.” for “instructions (R&D systems).”

[7] = test system: primary human macrophages; assay: Cytokine synthesis in primary human macrophages stimulated with tenascin-C or its domains; format: cell-based
Description: Human monocytes were isolated from peripheral blood (London Blood Bank) and macrophages were derived from monocytes after differentiation for 4 days with 100 ng/ml of M-CSF as previously described (Foxwell (1998)).
(§7) Immediately after isolation, RA membrane cells and macrophages were cultured at 1×10^5 cells/well in RPMI 1640 containing 10% (v/v) FBS and 100 U/ml (Units/ml) penicillin/streptomycin in 96-well tissue culture plates for 24 hours before stimulation. Synovial fibroblasts (used only at either passage number 2 or 3) were cultured at 1×10^4 cells/well in DMEM containing 10% (v/v) FBS and 100 U/ml penicillin/streptomycin in 96-well tissue culture plates for 24 hours before stimulation.
as §4, §5
as §3, with “were subsequently” for “were”, “instructions.” for “instructions (R&D systems).”

[8] = test system: RA synovial fibroblasts; assay: Cytokine synthesis in RA synovial fibroblasts stimulated with tenascin-C, FBG or LPS; format: cell-based, human; conditions: 24 h
From the text: RA membrane cells (representing a mixed population of all synovial cell types) were isolated from synovial membranes obtained from patients undergoing joint replacement surgery as previously described (Brennan (1989)). RA synovial fibroblasts were isolated from the mixed population of RA membrane cells as previously described (Brennan (1989)). The study was approved by the local Trust ethics committee (Riverside NHS Research Committee), and waste tissue (synovium after joint replacement surgery) was obtained only after receiving signed informed consent from the patient and anonymyzing the tissue to protect patient identity.
as §7, §4, §5
as §3, with “were subsequently” for “were”, “instructions.” for “instructions (R&D systems).”

[9] = test system: RA synovial fibroblasts; assay: Cytokine synthesis in RA synovial fibroblasts transfected with tenascin-C siRNA; format: cell-based, human; conditions: compared to control cells (IL6)
Description: (§8) Synovial fibroblasts (used only at either passage number 2 or 3) were seeded at a concentration of 5×10^4 cells in a 3.5-cm dish. siRNA was transfected at a final concentration of 10 nM using Lipofectamine 2000 (Invitrogen) for 4 h in serum-free OptiMEM I. Two different siRNAs against human tenascin-C were used (s7069 and s229491) (Applied Biosystems).
Four hours after transfection, medium was changed with pre-equilibrated Dulbecco's modified Eagle's medium containing 10% FBS (v/v) and cells were incubated for a further 48 h and 72 h. Cells were then stimulated with 10 ng/ml LPS for 24 h at 37° C. Tenascin-C mRNA and protein levels were quantitated by PCR and western blotting respectively. Total RNA was extracted from cells using a QiaAmp RNA Blood mini kit (Qiagen, Germany). cDNA was synthesised from equivalent amounts of total RNA using SuperScript® III Reverse Transcriptase (invitrogen) and 18-mer oligo dTs (Eurofins MWG Operon).
as §3

[10] = test system: tenascin-C; assay: siRNA mediated knockdown of tenascin-C expression in RA synovial fibroblasts; format: cell-based, human; conditions: 10 nM siRNA, compared to luciferase siRNA control
Description: as §8
siRNA sequences of s7069 are: (sense 5′ […]tt 3′, antisense 5′ […]tc 3′) and of s229491 are (5′ […]tt 3′, antisense 5′ […]gg 3′). siRNA against luciferase (Dharmacon) was transfected as a non-targeting control.
Four hours after transfection, medium was changed with pre-equilibrated Dulbecco's modified Eagle's medium containing 10% FBS (v/v) and cells were incubated for a further 48 h and 72 h. Cells were then stimulated with 10 ng/ml LPS for 24 h at 37° C. Tenascin-C mRNA and protein levels were quantitated by PCR and western blotting respectively. […]
Gene expression was analysed by delta-delta ct methods based on quantitative real-time PCR with TaqMan primer set human tenascin-C(Hs01115663-ml) and human ribosomal protein endogenous control (RPLPO) (4310879E) (Applied Biosystems) in a Corbett Rotor-gene 6000 machine (Corbett Research Ltd). Tenascin-C protein was detected in cell supernatants and cell lysates by SDS PAGE and western blotting using antibody MAB1908 (Millipore).

## ELRVDLRDHGETAFAVYDKFSVGDAKTRYK [Peptide 5]
[1]
  FBG mediated cytokine synthesis (block): specifically blocked
[2]; RA membrane cells, 24 h
  effect on TNF synthesis: no effect
[2]; RA membrane cells, dose dependent
  maximal inhibition of IL8 synthesis: 81%
[3]
  cytokine synthesis (induction): induced cytokine synthesis in a dose dependent manner

## IL-1 receptor antagonist: IL-1 receptor antagonist from R&D Systems
[4]
  inhibition of FBG induction of cytokines: did not inhibit

## KTRYKLKVEGYSGTAGDSMAYHNGRSFST [Peptide 6]
[3]
  cytokine synthesis (induction): induced cytokine synthesis in a dose dependent manner

## Pam3Cys-Ser-Lys4 [reference compound]
[5]
  cytokine synthesis in cells from TLR2 deficient mice: unresponsive
  cytokine synthesis in cells from TLR4 deficient mice: did respond
[6]
  cytokine synthesis in embryonic fibroblasts with targeted deletion of MyD88: abolished

## TIGLLYPFPKDCSQAMLNGDTTSGLYTIYL [Peptide 1]
[3]
  cytokine synthesis (induction): induced cytokine synthesis in a dose dependent manner

## TNF-α [reference compound]
[6]
  cytokine synthesis in embryonic fibroblasts with targeted deletion of MyD88: unaffected

## WIVFLRRKNGRENFYQNWKAYAAGFGDRRE [Peptide 3]
[2]
  inhibition of cytokine synthesis: 95%
  TNF and IL8 synthesis (inhibition): inhibited

## WYRNCHRVNLMGRYGDNNHSQGVNWFHWKG [Peptide 8]
[1]; then 1 ng/ml LPS 24 h
  cytokine synthesis in response to LPS (block): blocked
[1]
  FBG mediated cytokine synthesis (block): blocked
[2]
  inhibition of cytokine synthesis: 56%
  TNF and IL8 synthesis (inhibition): inhibited

## tenascin-C: recombinant full-length human tenascin-C purified from HEK293 conditioned medium
[7]; 1.0 μM-1.0 nM, 24 h
  production of TNF-α, IL-6 and IL-8 in human macrophages: dose dependently stimulated
[7]; boiled 15 minutes, 25 μg/ml polymyxin B pre-incubation, human macrophages and synovial fibroblasts
  cytokine stimulation: heat sensitivity and effect of polymyxin B: heat sensitive and unaffected by the LPS inhibitor, polymyxin B
[8]
  TNF-α synthesis in fibroblasts: Neither LPS nor tenascin-C induced
[8]; LPS 10 ng/ml
  IL-6 synthesis in RA synovial fibroblasts: only induced IL-6 synthesis
  IL-8 synthesis in RA synovial fibroblasts: only induced IL-6 synthesis

B1: IL-1: murine IL-1 used to stimulate MEFs (protein, UniProt P10749 118-269, looked up)
Interleukin-1 beta: VPIRQLHYRLRDEQQKSLVLSDPYELKALHLNGQNINQQVIFSMSFVQGEPSNDKIPVALGLKGKNLYLSCVMKDGTPTLQLESVDPKQYPKKKMEKRFVFNKIEVKSKVEFESAEFPNWYISTSQAEHKPVFLGNNSGQDIIDFTMESVSS
[5]
  cytokine synthesis in cells from TLR2 deficient mice: responsive
  cytokine synthesis in cells from TLR4 deficient mice: did respond
[6]
  cytokine synthesis in embryonic fibroblasts with targeted deletion of MyD88: abolished

B2: tenascin-C siRNA: tenascin-C targeted siRNAs; combination of oligos 1+2 used for cytokine synthesis (nucleic acid)
sense 1: CGCGAGAACUUCUACCAAATT
antisense 1: UUUGGUAGAAGUUCUCGCGTC
sense 2: GGAAUAUGAAUAAAGAAGATT
antisense 2: UCUUCUUUAUUCAUAUUCCGG
modifications: chemistry not given here
notes: tenascin-C targeted siRNAs; combination of oligos 1+2 used for cytokine synthesis
[9]; 10 ng/ml LPS 24 h
  inhibition of LPS induced cytokine production: 44%
[9]
  inhibition of basal level of cytokine synthesis: 38%
[10]
  knockdown of tenascin-C expression, maximal efficiency: 94-96%
